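Compound exposure: 48 hours, 5 concentrations, 96-well plates. GI50 = concentration required for 50% inhibition of growth. TGI: concentration producing complete growth inhibition.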

Experimental findings from PubChem BioAssay (NCI) are described below.

Common to all, as to experiment: NCI tumour cell line growth inhibition, 48 h
Test [1] concerns HT29 colon.
The test system of test [2] is NCI-H522 lung.
The test system of test [3] is HOP-62 NSCLC.
In test [4] the test system is EKVX NSCLC.
Test [5] deals with SF-539 CNS.
Test [6] concerns UO-31 renal.
Test [7] has as its system SW-620 colon.
Test [8] has as its system SK-MEL-5 melanoma.
Test [9] has as its system M14 melanoma.
Test [10] concerns MALME-3M melanoma.

For the molecule `CC(=O)O[C@@H]1C[C@@]2(C)[C@@H]3CC=C4[C@@H](C[C@H](O)C(=O)C4(C)C)[C@]3(C)C(=O)C[C@]2(C)[C@H]1[C@@](C)(O)C(=O)/C=C/C(C)(C)OC(C)=O`, the TGI in test [1] is over 100 µM; in test [2], 4.55 µM; in test [3], 5.29 µM; in test [4], 26 µM; in test [5], 12.6 µM; in test [6], 0.881 µM. Further, the TGI amounted to 35.6 µM in test [7], 11 µM in test [8] and 14.9 µM in test [9].
On to `N#CCN1C(=O)c2cc([N+](=O)[O-])cc3cc([N+](=O)[O-])cc(c23)C1=O`, for which the TGI in [1] is over 69.2 µM; in test [3] it was 41.9 µM; in test [4], 55.8 µM; in test [5] it was 31.8 µM; in test [10] it was 28 µM; in test [6], 32 µM. In addition, the TGI in test [7] was found to be 20.3 µM; in [8], 29.8 µM; in test [9], 48.2 µM.
As for `CC(=O)/C(=C\c1ccccc1O)C(=O)Nc1ccccc1C`, the TGI amounted to 37.2 µM in [1]; 44.7 µM in test [3]; 96.8 µM in test [4]; 42.2 µM in test [5]; 47.7 µM in test [10]; 31 µM in test [6]. The results for the TGI in test [7], in [8] and in test [9] were 53.7 µM, 27.9 µM and 39.9 µM, respectively.
Consider `NC1=NC(=O)C(CC(=O)Nc2ccc(Cl)cc2Cl)S1` (configuration not stated), for which the TGI in test [1], in test [3], in test [4], in test [5], in test [10] and in test [6] was over 100 µM each time. The TGI in test [7], in test [8] and in test [9] was over 100 µM each time.
As to `O=C(NCCNCCO)c1cccc2ccc(-c3ccccc3)nc12`, the TGI in test [1] came out at 14.6 µM; in [3] it was 22.8 µM; in test [4], 19.7 µM; in test [5], 13 µM; in test [6], 12 µM; in [7], 14.2 µM. The TGI in test [8] turned out to be 12.5 µM; in test [9] it was 17.8 µM.
For the molecule `Cc1ccc(C2C3Cc4ccccc4C3=NN2c2ccc(S(=O)(=O)/N=c3\scc(-c4ccccc4)n3-c3ccccc3)cc2)cc1` (configuration not stated), the GI50 was 22 µM in test [2]; 40.2 µM in test [3]; 21.5 µM in test [4]; 19.5 µM in test [5]; 18.4 µM in test [6]; 15.7 µM in [7]. Besides, the GI50 in test [8] was 13.2 µM; in [9], 30.6 µM. The TGI in [2] is 66.8 µM; in [3], over 100 µM; in [4], 65.7 µM; in test [5], 37.3 µM; in test [6] it was 55.4 µM; in [7] it was 31.6 µM. The values for the TGI in [8] and in [9] were 26 µM and over 100 µM, respectively.
Regarding `CCC(=O)Nc1ccc(N2C(=O)/C(=C/c3ccc(OC)cc3)N=C2c2ccccc2)cc1`, the GI50 is 5.91 µM in test [1]; 48.5 µM in test [2]; 42.9 µM in test [4]; 5.49 µM in test [5]; 30 µM in test [6]; 1.38 µM in [7]. Moreover, the GI50 in test [8] was 7.16 µM; in [9], 8.6 µM. The TGI in [1] is over 50 µM; in test [2] it was over 50 µM; in test [4], over 50 µM; in test [5], 16 µM; in [6] it was over 50 µM; in test [7], over 50 µM. In addition, the figures for the TGI in [8] and in test [9] were over 50 µM and 43.3 µM, respectively.
Turning to `COc1ccc(-c2cc(=O)c3c(O)cccc3o2)c(OC)c1OC`, the TGI in [1] was over 100 µM; in test [2], over 100 µM; in test [3], over 100 µM; in test [5] it was 86.9 µM; in test [10] it was over 100 µM; in test [7], over 100 µM. Besides, the TGI in test [8] and in [9] was over 100 µM in each case.
Turning to `CC(C)(C)c1cc2nc(c1)C(C(F)(F)F)(C(F)(F)F)OB(Br)OC2(C(F)(F)F)C(F)(F)F`, the TGI in [1] worked out at 12.1 µM; in [3], 3.14 µM; in test [4], 0.727 µM; in [5], 7.31 µM; in [10] it was 4.42 µM; in [6] it was 2.72 µM. Further, the results for the TGI in test [7] and in test [9] were 15.8 µM and 3.38 µM, respectively.
Turning to `CCc1c(C)nc2sc3c(N)ncnc3c2c1C`, the GI50 in [1], in [2], in [3], in test [5], in [10] and in test [6] was over 25 µM in each case. Further, the GI50 in test [7], in [8] and in test [9] was over 25 µM in each case. Besides, the TGI in test [1], in [2], in test [3], in [5], in [10] and in [6] was over 25 µM throughout. Besides, the TGI in test [7], in test [8] and in test [9] was over 25 µM throughout.
For `C[C@@H]1O[C@@H](O[C@@H]2[C@@H](O)[C@H](OCCc3ccc(O)c(O)c3)O[C@H](CO)[C@H]2OC(=O)/C=C/c2ccc(O)c(O)c2)[C@H](O)[C@H](OC2OC[C@](O)(CO)[C@H]2O)[C@H]1O` (some centres not stated), the GI50 in [2] is over 100 µM; in test [3], over 100 µM; in [4] it was 63.9 µM; in [5] it was over 100 µM; in test [6], over 100 µM; in test [7] it was 22.7 µM. Moreover, the GI50 in test [8] and in test [9] was over 100 µM in each case. In addition, the TGI in test [2] is over 100 µM; in test [3], over 100 µM; in test [4], over 100 µM; in [5], over 100 µM; in [6] it was over 100 µM; in test [7], 52.8 µM. Besides, the TGI in test [8] and in [9] was over 100 µM in each case.
`CCCC(S(=O)(=O)c1ccccc1)S(=O)(=O)c1ccccc1`: the TGI in test [1], in [3], in test [4], in [5], in [10] and in test [6] was over 100 µM throughout. The TGI in [7], in test [8] and in test [9] was over 100 µM throughout.
As for `C[n+]1c2ccccc2nc2c(N)cc(N)cc21`, the GI50 in test [1] is 15.3 µM; in test [3] it was 3.48 µM; in [4] it was 8.04 µM; in [5], 5.41 µM; in [10], 2.39 µM; in [6], 26.2 µM. Further, the GI50 is 10.7 µM in test [7], 2.56 µM in test [8] and 19.1 µM in test [9]. The TGI in [1] is over 100 µM; in test [3] it was 38.1 µM; in test [4], over 100 µM; in test [5], 32.2 µM; in [10], 9.77 µM; in test [6], over 100 µM. In addition, the TGI is over 100 µM in [7], 7.09 µM in [8] and 76.3 µM in [9].
`COc1ccc(/C=C(\C)[N+](=O)[O-])cc1OC`: the GI50 in [1] was 2.2 µM; in test [2], 1.34 µM; in [3] it was 5.08 µM; in [5], 1.74 µM; in test [10] it was 1.4 µM; in [6], 1.68 µM. Besides, the GI50 was 1.78 µM in test [7], 2.19 µM in [8] and 1.96 µM in [9]. For the same molecule, the TGI in [1] came out at 4.43 µM; in test [2], 2.94 µM; in test [3], 16.4 µM; in [5], 3.17 µM; in test [10], 3.17 µM; in test [6], 3.2 µM. Moreover, the values for the TGI in [7], in [8] and in [9] were 3.8 µM, 5.11 µM and 3.95 µM, respectively.
As to `Fc1cccc(F)c1C(Nc1nncs1)Nc1nncs1`, the TGI in test [1], in test [2], in test [3], in test [5], in [10] and in test [6] was over 100 µM throughout. Also, the TGI in test [7], in [8] and in test [9] was over 100 µM in each case.
Take `O=C(NNS(=O)(=O)c1ccc(Cl)cc1Cl)c1cccnc1Nc1ccc(Cl)cc1`: the GI50 in test [1] was 22.8 µM; in [3] it was 16.6 µM; in test [4] it was 26.1 µM; in test [5], 19 µM; in test [10], 11.1 µM; in [6], 37.2 µM. Further, the results for the GI50 in test [7], in [8] and in [9] were 28.4 µM, 14.2 µM and 19 µM, respectively. For the same molecule, the TGI in test [1] is 54.2 µM; in test [3], 37.7 µM; in test [4] it was over 100 µM; in test [5] it was 44.5 µM; in [10], 34.9 µM; in [6], over 100 µM. For the same molecule, the figures for the TGI in [7], in test [8] and in test [9] were over 100 µM, 29.7 µM and 38.7 µM, respectively.
`CC1c2ccccc2CCN1c1ccc(CO)c(Cl)c1` (configuration not stated): the GI50 was 0.383 µM in test [1]; 17.4 µM in test [2]; 1.67 µM in test [3]; 19.1 µM in [5]; 22.7 µM in test [10]; 14.6 µM in test [6]. Further, the results for the GI50 in [7], in [8] and in test [9] were 0.203 µM, 13.8 µM and 22.5 µM, respectively. The TGI was found to be 25.2 µM in [1]; 50.5 µM in [2]; 25.3 µM in test [3]; 47.3 µM in test [5]; 54.6 µM in test [10]; 65.3 µM in test [6]. In addition, the results for the TGI in test [7], in test [8] and in test [9] were over 100 µM, 27.1 µM and 58.2 µM, respectively.
On to `CC(C)C[C@H](NC(=O)CCn1ccc2ccccc2c1=O)B(O)O`, for which the GI50 is 3.68 µM in [1]; 2.6 µM in [2]; 4.51 µM in [3]; 1.61 µM in [5]; 2.58 µM in test [10]; 3.92 µM in [6]. Moreover, the GI50 in test [7] is 3 µM; in test [8] it was 4.3 µM; in test [9] it was 4.23 µM. Besides, the TGI in test [1] worked out at 48.7 µM; in test [2], 8.09 µM; in test [3] it was 22.1 µM; in test [5] it was 5.62 µM; in test [10] it was 9.89 µM; in test [6], 35.3 µM. The results for the TGI in [7], in test [8] and in [9] were 12 µM, 19 µM and over 100 µM, respectively.
As for `C[CH2][Hg][S]c1ccccc1C(=O)O`, the GI50 is 2.58 µM in [3]; 2.05 µM in [4]; 1.7 µM in test [5]; 0.801 µM in test [10]; 1.43 µM in [6]; 0.838 µM in test [7]. The GI50 in test [9] is 1.36 µM. Besides, the TGI in test [3] is 12.3 µM; in test [4] it was 5.39 µM; in test [5] it was 3.32 µM; in test [10] it was 2.25 µM; in [6], 2.79 µM; in test [7], 2.24 µM. Further, the TGI in test [9] is 2.74 µM.
For the molecule `CN=C1OC2(c3ccccc3)C3=C(OC(=NC)N2C)C(=O)OC3(c2ccccc2)N1C` (configuration not stated), the TGI in [1], in [2], in test [3], in test [4], in test [5] and in [7] was over 100 µM in each case. Moreover, the TGI in test [8] and in [9] was over 100 µM in each case.
Take `N#CCCNc1nonc1-c1nc2ccccc2n1CC(=O)c1ccc(NC(=O)[C@@H](N)CCCCN)cc1`: the GI50 in test [1] was 0.0326 µM; in test [2] it was 0.0363 µM; in test [3] it was 0.0562 µM; in [10], over 100 µM; in test [6], 0.282 µM; in test [7], 0.0443 µM. Also, the figures for the GI50 in [8] and in [9] were 0.03 µM and 0.0199 µM, respectively. Besides, the TGI in test [1] was over 33.3 µM; in [2], over 100 µM; in [3], over 100 µM; in test [10], over 100 µM; in test [6] it was over 100 µM; in test [7], over 100 µM. In addition, the TGI in test [8] stood at 0.197 µM; in [9], 0.0685 µM.
